From PubChem BioAssay (NCI)
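Results reflect a 48-hour exposure of cells in 96-well plates to compound at five concentrations. TGI marks complete inhibition of growth.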

How the values were obtained:
Experiment in all cases: inhibition of tumour cell growth, NCI panel, 48 h
[1] = test system: NCI-H226 lung
[2] = test system: PC-3 prostate
[3] = test system: KM12 colon
[4] = test system: SF-295 CNS
[5] = test system: ACHN renal
[6] = test system: RXF 393 renal
[7] = test system: U251 CNS
[8] = test system: MCF7 breast
[9] = test system: M14 melanoma
[10] = test system: UO-31 renal
[11] = test system: MDA-N
[12] = test system: NCI/ADR-RES ovarian
[13] = test system: SN12C renal
[14] = test system: DU-145 prostate
[15] = test system: UACC-62 melanoma
[16] = test system: NCI-H460 lung
[17] = test system: OVCAR-3 ovarian
[18] = test system: UACC-257 melanoma
[19] = test system: SK-MEL-28 melanoma
[20] = test system: LOX IMVI melanoma
[21] = test system: SK-OV-3 ovarian
[22] = test system: CAKI-1 renal
[23] = test system: SF-268 CNS
[24] = test system: MDA-MB-435
[25] = test system: 786-0 renal
[26] = test system: SNB-75 CNS
[27] = test system: T-47D breast
[28] = test system: HS 578T breast
[29] = test system: SW-620 colon
[30] = test system: HOP-62 NSCLC
[31] = test system: SF-539 CNS
[32] = test system: HCC-2998 colon
[33] = test system: SNB-19 CNS
[34] = test system: OVCAR-4 ovarian
[35] = test system: K-562 leukemia
[36] = test system: MALME-3M melanoma
[37] = test system: RPMI-8226 leukemia
[38] = test system: BT-549 breast
[39] = test system: NCI-H23 lung
[40] = test system: OVCAR-8 ovarian
[41] = test system: HCT-15 colon
[42] = test system: EKVX NSCLC
[43] = test system: A498 renal
[44] = test system: CCRF-CEM leukemia
[45] = test system: OVCAR-5 ovarian
[46] = test system: HCT-116 colon
[47] = test system: A549 NSCLC
[48] = test system: SK-MEL-2 melanoma
[49] = test system: HT29 colon
[50] = test system: COLO 205 colon
[51] = test system: MDA-MB-231 breast
[52] = test system: MOLT-4 leukemia

Measured: TGI

Cc1n[nH]c(=O)n1/N=C/c1cccs1
not listed: [52]
> 100 µM: all other assays above

O=C1c2ccccc2-c2c1c(-c1ccc([N+](=O)[O-])cc1)nc1ccc3ccccc3c21
not listed: [6] | [20]
> 100 µM: all other assays above
